Reference: patent publication US20090233999A1, “COMPOSITIONS AND THERAPEUTIC METHODS INVOLVING ISOFLAVONES AND ANALOGUES THEREOF” (NOVOGEN RESEARCH PTY LTD, priority 1999, published 2009)

Key:
IL-6 = assay: UVB psoriasis model: immunohistochemical detection of IL-6; format: in vivo, mouse; details: 20 μM topical; 72 h; Skh:hr-1
Experimental: (§1) Groups of three Skh:hr-1 mice were exposed to 3×MEdD of UVB radiation, with and without topical treatment with 20 μM Cpd. 18, and were euthanased before and at 24, 48, 72 and 96 h after irradiation, and mid-dorsal skin samples were taken for histological fixation. The samples were fixed for 6 h in Histochoice (Amresco Solon, Ohio), then processed overnight in an automated formalin-ethanol-based system (Tissue Tek VIP; Bayer Diagnostics, Ferntree Gully, Australia) and embedded into paraffin blocks. Sections of 4 μm were cut onto silane-coated slides, de-waxed and rehydrated using xylene followed by graded aqueous ethanol solutions to PBS. […]
The IL-6 was detected by incubation with goat anti-mouse IL-6 antibody (R & D systems) followed biotinylated anti-goat IgG (Vector Laboratories, Burl ingame, CA), before treating with StreptABComplex/HRP (biotinylated horseradish peroxidase and streptavidin; Dako Corporation, CA) for 30 min. […]
(§2) The stained sections were examined by light microscopy at 20× magnification and images were captured digitally with a Sony Hyper HAD colour video camera (Sony, Tokyo, Japan). Stain intensity was analysed using a Leica Q500 MC image processing and analysis system (Leica, Cambridge, UK) and semi-quantitated in arbitrary image analysis units as the average intensity of 15 sequential fields across the skin section for each of 3 mice per treatment group. […]

P-cadherin = assay: UVB psoriasis model: immunohistochemical detection of P-cadherin; format: in vivo, mouse; details: 20 μM topical
Experimental: as §1, with “PBS. Endogenous peroxidase activity of the sections was quenched with 3% H2O2 in methanol for 10 min at room temperature and washed 3 times with PBS. The sections were then blocked with 10% skim milk in PBS for 40 min at room temperature.” for “PBS.”
as §2

mast cells = assay: UVB psoriasis model: histochemical identification of dermal mast cells; format: in vivo, mouse; details: 20 μM topical; 72 h post-UVB; UVB alone 14.2, unirradiated 9.8
Experimental: Groups of 3 Skh:hr-1 mice were exposed to 3×MEdD of UVB radiation, with and without topical treatments of 20 μM Cpd. 18 immediately and at 24 and 48 h post-UVB. The mice were euthanased and, and mid-dorsal skin samples were taken before and at 72 h after irradiation for histological fixation. The samples were fixed for 6 h in Histochoice and processed and wax-embedded as described above. Sections of 5 μm were cut for histochemical identification of mast cells, by staining with 0.1% toluidine blue solution in McIlvane buffer, pH 3. Positively stained cells with a diameter of 10 μm or more in the dermal compartment were counted under light microscopy (Olympus UPlanApo, Japan) using a at 20× magnification, in 10 sequential non-overlapping fields for each of 3 mice per treatment group, and the average mast cell number per field was obtained. Statistical significance of the differences between groups was determined using Student's t test. All the experiments were performed at least twice, with triplicate skin samples.

SJL/J mice (EAE) = assay: Experimental autoimmune encephalomyelitis (EAE), PLP 139-151; format: in vivo, mouse; details: 20 μM, 100 μl topical daily
Experimental: EAE induction was carried by immunisation with PLP 139-151 ([…]-NH2) in incomplete Freund's adjuvant (Sigma) supplemented with 4 mg/ml of Mycobacterium tuberculosis (strain H37Ra) as described previously, Groups of 6 female mice aged 4-5 weeks old were immunised, and body weight and the development neurological signs were monitored daily for 6 weeks. Clinical signs were scored according to an established scale:
Cpd. 18 was made up to a concentration of 20 μM in a vehicle of propylene glycol-ethanol-water (1:2:1) with 0.001% DMSO). An aliquot of 100 μl either of Cpd. 18 in vehicle, or the vehicle alone, was applied to the mouse dorsum (six mice per group) for 5 days before the immunisation (with PLP 139-151) and daily post-immunisation for 48 days.

INFγ = INFγ production by murine splenocytes; format: cell-based, mouse; details: 10 μM; Con A
Experimental: Male Skh-1 (hairless) mice, approximately six weeks old were killed by cervical dislocation. Single cell suspensions were made from the spleen and erythrocytes were lysed in buffer (0.14M NH4Cl, 17 mM Tris, pH 7.2). The remaining splenocytes were cultured in RPMI-1640 (Gibco) supplemented with 10% (v:v) FBS, 2 mM L-glutamine, pen/strep and 50 μM 2-mercaptoethanol. Splenocytes were added to quadruplicate wells containing either the T cell mitogen concanavalin A (Con A, Sigma-Aldrich—0. 4 μg/well), the B-cell mitogen LPS (Sigma-Aldrich—1 μg/well) or no mitogen, as well as test compound at a concentration of 10 μM in DMSO. Samples were analysed after a 3 day incubation at 37° C. in 5% CO2 in air. Cell viability was assessed by adding MTT to each well, incubating for a further 4 hrs and then developing colour with 0.04N HCl in isopropanol. Supernatant samples were frozen at −80° C. and IL-6, IFN-γ and TNFα were detected in triplicate using ELISA kits (BD Biosciences).

Cc1c(O)ccc2c1OCC(c1cccc(O)c1)=C2 [Cpd. 14, 3′,7-Dihydroxy-8-methylisoflav-3-ene]
melting point: 130 °C

COc1ccc(C2=Cc3ccc(O)cc3OC2)cc1OC [Cpd. 18, 7-Hydroxy-3′,4′-dimethoxyisoflav-3-ene]
UVB-induced levels of IL-6 immunopositivity in the epidermis (IL-6): significantly reduced | P-cadherin expression in the skin, treatment alone (P-cadherin; without UVB): no effect | reduction of UVB-induced P-cadherin positive cells (P-cadherin; 72 h, Skh:hr-1): approximately 50% | dermal mast cell number (mast cells): 10.0 cells per field | disease course (SJL/J mice (EAE)): chronic relatively stable disease | severity of clinical signs (SJL/J mice (EAE); acute phase and first relapse at 28-36 days): tended to reduce the severity

Oc1ccc(C2=Cc3ccc(O)c(Br)c3OC2)cc1 [Cpd. 20, 4′,7-Dihydroxy-8-bromoisoflav-3-ene]
INFγ synthesis by T cells (INFγ): marked reduction
